In patent US20110020269A1, “METHODS AND COMPOSITIONS FOR MODIFYING T CELL IMMUNE RESPONSES AND INFLAMMATION” (Beth Israel Deaconess Medical Center, Inc., priority 2007, published 2011):

Columns and labels:
new onset T1DM NOD mice = assay: Restoration of euglycemia in new onset diabetic NOD mice; format: in vivo, mouse; conditions: NOD-sp hosts; treatment 28 days
Description: We tested the efficacy of a 14- or 28-day course of Power Mix (RPM+IL-2/Fc+mIL-15/Fc) in new onset (>10 days) T1DM NOD mice whose repeated blood glucose levels ranged from 300 to 450 mg/dl. All non-treated diabetic NOD mice remained hyperglycemic without spontaneous remissions (Table 1, group A) and most died within 7 weeks despite insulin treatment (data not shown). In contrast, euglycemia was achieved within 5-7 weeks and maintained throughout a follow up period of over 300 days in 55 of 60 diabetic NOD mice treated with the RPM+IL-2/Fc+mIL-15/Fc regimen (Table 1 groups B and C). By comparison, remissions were less frequent (Table 1, Groups D-F) and delayed if elements of the treatment mix were eliminated.
To determine whether the presence of the T cell regulatory-enriched CD25+ T cell population is crucial to the beneficial therapeutic effects of Power Mix, prior to administration, we treated new onset diabetic NOD mice with an anti-CD25 mAb regimen known to delete CD4+CD25+ T cells (Zheng et al., Adv. Exp. Med. Biol., 520:87-95, 2003; Sanchez-Fueyo et al., Nat. Immunol., 4:1093-1101, 2003). Seven days after the initiation of anti-CD25 mAb treatment, these CD25+ T cell depleted mice received regimen treatment for 28 days (Table 1, Group G). […]
Blood glucose levels of NOD mice were monitored twice weekly with the Accu-Check blood glucose monitor system (Roche, Indianapolis, Ind.). […]

[1] = subcutaneous injection of 25 mg twice a week; cited from earlier work

Compound	Restored to Normoglycemia (#/total treated) (new onset T1DM NOD mice)	Time to peak blood levels (average) [1] [h]
CO[C@H]1C[C@@H]2CC[C@@H](C)[C@@](O)(O2)C(=O)C(=O)N2CCCC[C@H]2C(=O)O[C@H]([C@H](C)C[C@@H]2CC[C@@H](O)[C@H](OC)C2)CC(=O)[C@H](C)/C=C(\C)[C@@H](O)[C@@H](OC)C(=O)[C@H](C)C[C@H](C)/C=C/C=C/C=C/1C [RPM, rapamycin]	5/19	
Etanercept		72
